Data on one molecule can be found in publication PMC5218480 (PLoS ONE, 2017).

For the test, the system named is MV-4-11 cells. The test can be described thus: Gene expression microarray analysis (Affymetrix PrimeView) and GSEA. On the set-up: RFU PODN (11730768_x_at) / Fold change /veh PODN (11730768_x_at) / RFU LINC00158 (11744669_a_at) / Fold change /veh LINC00158 (11744669_a_at) / RFU DUSP10 (11751237_a_at) / Fold change /veh DUSP10 (11751237_a_at) / RFU ID3 (11757404_x_at) / Fold change /veh ID3 (11757404_x_at) / RFU PLEKHG5 (11737974_s_at) / Fold change /veh PLEKHG5 (11737974_s_at) / RFU LRRC4B (11730491_at) / Fold change /veh LRRC4B (11730491_at) / RFU GIMAP4 (11747438_a_at) / Fold change /veh GIMAP4 (11747438_a_at) / RFU KRT8 (11758183_x_at) / Fold change /veh KRT8 (11758183_x_at) / RFU CNN1 (11734310_a_at) / Fold change /veh CNN1 (11734310_a_at) / RFU VPS37D (11726825_at) / Fold change /veh VPS37D (11726825_at) / RFU C10orf10 (11716522_x_at) / Fold change /veh C10orf10 (11716522_x_at) / RFU KIR2DL2 /// KIR2DL4 /// KIR2DL5A /// KIR2DL5B /// KIR2DS1 /// KIR2DS2 /// KIR2DS3 /// KIR2DS4 /// KIR3DL3 /// KIR3DL3 /// KIR3DS1 (11738374_at) / Fold change /veh KIR2DL2 /// KIR2DL4 /// KIR2DL5A /// KIR2DL5B /// KIR2DS1 /// KIR2DS2 /// KIR2DS3 /// KIR2DS4 /// KIR3DL3 /// KIR3DL3 /// KIR3DS1 (11738374_at) / RFU C1QL1 (11718748_at) / Fold change /veh C1QL1 (11718748_at) / RFU TMPRSS4 (11747572_a_at) / Fold change /veh TMPRSS4 (11747572_a_at) / RFU HAMP (11756126_x_at) / Fold change /veh HAMP (11756126_x_at) / RFU RNFT2 (11725882_a_at) / Fold change /veh RNFT2 (11725882_a_at) / RFU NR4A2 (11747474_a_at) / Fold change /veh NR4A2 (11747474_a_at) / RFU ABCC12 (11746883_a_at) / Fold change /veh ABCC12 (11746883_a_at) / RFU TMEM136 (11760407_x_at) / Fold change /veh TMEM136 (11760407_x_at) / RFU CLDN22 /// WWC2 (11732394_at) / Fold change /veh CLDN22 /// WWC2 (11732394_at) / RFU HLA-DPB1 (11760878_x_at) / Fold change /veh HLA-DPB1 (11760878_x_at) / RFU SPINT1 (11716480_a_at) / Fold change /veh SPINT1 (11716480_a_at) / RFU GAP43 (11754022_s_at) / Fold change /veh GAP43 (11754022_s_at) / RFU A4GNT (11735810_at) / Fold change /veh A4GNT (11735810_at) / RFU PRB3 (11715151_x_at) / Fold change /veh PRB3 (11715151_x_at) / RFU TUBB4B (11761932_at) / Fold change /veh TUBB4B (11761932_at) / RFU CAPN14 (11732068_a_at) / Fold change /veh CAPN14 (11732068_a_at) / RFU TMCC2 (11721928_a_at) / Fold change /veh TMCC2 (11721928_a_at) / RFU IRGQ (11745062_a_at) / Fold change /veh IRGQ (11745062_a_at) / RFU FAM174B (11720279_a_at) / Fold change /veh FAM174B (11720279_a_at) / RFU TMPRSS4 (11748680_a_at) / Fold change /veh TMPRSS4 (11748680_a_at) / RFU FAM212B (11763350_a_at) / Fold change /veh FAM212B (11763350_a_at) / RFU PLEKHG5 (11743358_a_at) / Fold change /veh PLEKHG5 (11743358_a_at) / RFU ZSCAN30 (11745921_a_at) / Fold change /veh ZSCAN30 (11745921_a_at) / RFU CMKLR1 (11741424_a_at) / Fold change /veh CMKLR1 (11741424_a_at) / RFU LOC101060620 /// MAPK8IP1 (11723275_at) / Fold change /veh LOC101060620 /// MAPK8IP1 (11723275_at) / RFU SPTSSB (11747773_x_at) / Fold change /veh SPTSSB (11747773_x_at) / RFU PRSS12 (11739890_at) / Fold change /veh PRSS12 (11739890_at) / RFU BIN1 (11741810_x_at) / Fold change /veh BIN1 (11741810_x_at) / RFU WNT11 (11732464_a_at) / Fold change /veh WNT11 (11732464_a_at) / RFU C10orf10 (11716521_a_at) / Fold change /veh C10orf10 (11716521_a_at) / RFU C5orf56 (11738089_at) / Fold change /veh C5orf56 (11738089_at) / RFU CYB561 (11721691_x_at) / Fold change /veh CYB561 (11721691_x_at) / RFU ANKRD19P (11752326_a_at) / Fold change /veh ANKRD19P (11752326_a_at) / RFU OR2T12 /// OR2T33 /// OR2T8 (11738714_s_at) / Fold change /veh OR2T12 /// OR2T33 /// OR2T8 (11738714_s_at) / RFU VCAN (11748164_a_at) / Fold change /veh VCAN (11748164_a_at) / RFU JSRP1 (11732532_at) / Fold change /veh JSRP1 (11732532_at) / RFU KRTAP10-11 (11738290_x_at) / Fold change /veh KRTAP10-11 (11738290_x_at) / RFU MYO3A (11730013_a_at) / Fold change /veh MYO3A (11730013_a_at) / RFU EBF3 (11725865_a_at) / Fold change /veh EBF3 (11725865_a_at) / RFU CAMK2N1 (11719241_x_at) / Fold change /veh CAMK2N1 (11719241_x_at) / RFU C5orf56 (11738088_a_at) / Fold change /veh C5orf56 (11738088_a_at) / RFU OLFML3 (11715873_a_at) / Fold change /veh OLFML3 (11715873_a_at) / RFU LOC100653217 /// NTM (11731650_a_at) / Fold change /veh LOC100653217 /// NTM (11731650_a_at) / RFU MAPK11 (11762145_a_at) / Fold change /veh MAPK11 (11762145_a_at) / RFU FIZ1 (11724087_x_at) / Fold change /veh FIZ1 (11724087_x_at) / RFU OASL (11726364_x_at) / Fold change /veh OASL (11726364_x_at) / RFU SOX15 (11748057_x_at) / Fold change /veh SOX15 (11748057_x_at) / RFU CD79A (11719716_a_at) / Fold change /veh CD79A (11719716_a_at) / RFU HIST1H1D (11736915_at) / Fold change /veh HIST1H1D (11736915_at) / RFU CASKIN2 (11723855_a_at) / Fold change /veh CASKIN2 (11723855_a_at) / RFU LOC730098 (11760151_x_at) / Fold change /veh LOC730098 (11760151_x_at) / RFU OR4N2 (11742367_at) / Fold change /veh OR4N2 (11742367_at) / RFU PRRT2 (11749266_a_at) / Fold change /veh PRRT2 (11749266_a_at) / RFU SNX32 (11753110_a_at) / Fold change /veh SNX32 (11753110_a_at) / RFU CDHR5 (11726645_a_at) / Fold change /veh CDHR5 (11726645_a_at) / RFU RCAN1 (11760418_a_at) / Fold change /veh RCAN1 (11760418_a_at) / RFU FAM167A (11723789_a_at) / Fold change /veh FAM167A (11723789_a_at) / RFU FAM26E (11764081_at) / Fold change /veh FAM26E (11764081_at) / RFU ISYNA1 (11749810_s_at) / Fold change /veh ISYNA1 (11749810_s_at) / RFU ACY1 (11761880_at) / Fold change /veh ACY1 (11761880_at) / RFU 11764098_at / Fold change /veh 11764098_at / RFU SAMD14 (11745864_x_at) / Fold change /veh SAMD14 (11745864_x_at) / RFU NPB (11741838_a_at) / Fold change /veh NPB (11741838_a_at) / RFU TMPRSS6 (11731388_a_at) / Fold change /veh TMPRSS6 (11731388_a_at) / RFU KRTAP10-2 (11738614_at) / Fold change /veh KRTAP10-2 (11738614_at) / RFU ARHGAP8 /// PRR5-ARHGAP8 (11727945_x_at) / Fold change /veh ARHGAP8 /// PRR5-ARHGAP8 (11727945_x_at) / RFU KRTAP5-7 /// NADSYN1 (11734609_at) / Fold change /veh KRTAP5-7 /// NADSYN1 (11734609_at) / RFU RASL12 (11751679_a_at) / Fold change /veh RASL12 (11751679_a_at) / RFU CDKN2B (11736163_a_at) / Fold change /veh CDKN2B (11736163_a_at) / RFU PRF1 (11729649_at) / Fold change /veh PRF1 (11729649_at) / RFU, ZNF638 /// ZNF638-IT1 / Fold change vs veh, ZNF638 /// ZNF638-IT1 / RFU, PANK3 / Fold change vs veh, PANK3 / RFU, SH3YL1 / Fold change vs veh, SH3YL1 / RFU, ZEB2 / Fold change vs veh, ZEB2 / RFU, NRIP1 / Fold change vs veh, NRIP1 / RFU, PTTG1IP / Fold change vs veh, PTTG1IP / RFU, CAPN2 / Fold change vs veh, CAPN2 / RFU, MED14 / Fold change vs veh, MED14 / RFU, SNORA58 / Fold change vs veh, SNORA58 / RFU, C1orf63 / Fold change vs veh, C1orf63 / RFU, LRRFIP1 / Fold change vs veh, LRRFIP1 / RFU, NDUFAF7 / Fold change vs veh, NDUFAF7 / RFU, SLC12A2 / Fold change vs veh, SLC12A2 / RFU, IBTK / Fold change vs veh, IBTK / RFU, ESF1 / Fold change vs veh, ESF1 / Fold change vs veh, TMEM50B / RFU, TAOK1 / Fold change vs veh, TAOK1 / RFU, ACBD3 / Fold change vs veh, ACBD3 / RFU, TMA16 / Fold change vs veh, TMA16 / RFU, RWDD3 / Fold change vs veh, RWDD3 / RFU, BCAT1 / Fold change vs veh, BCAT1 / RFU, EDEM3 / Fold change vs veh, EDEM3 / RFU, TMEM33 / Fold change vs veh, TMEM33 / RFU, WDR75 / Fold change vs veh, WDR75 / RFU, AHCTF1 / Fold change vs veh, AHCTF1 / RFU, TFRC / Fold change vs veh, TFRC / RFU, ZDHHC17 / Fold change vs veh, ZDHHC17 / RFU, NOM1 / Fold change vs veh, NOM1 / RFU, ARL8B / Fold change vs veh, ARL8B / RFU, ZBTB11 / Fold change vs veh, ZBTB11 / RFU, TAMM41 / Fold change vs veh, TAMM41 / RFU, KIAA1704 /// LOC100996395 / Fold change vs veh, KIAA1704 /// LOC100996395 / RFU, ING1 / Fold change vs veh, ING1 / RFU, TRMT61B / Fold change vs veh, TRMT61B / RFU, FUBP3 / Fold change vs veh, FUBP3 / RFU, TP53 / Fold change vs veh, TP53 / RFU, TNKS2 / Fold change vs veh, TNKS2 / RFU, ZFP14 / Fold change vs veh, ZFP14 / RFU, ACTR2 / Fold change vs veh, ACTR2 / RFU, PPP3R1 / Fold change vs veh, PPP3R1 / RFU, PIK3R1 / Fold change vs veh, PIK3R1 / RFU, HNRNPA1 / Fold change vs veh, HNRNPA1 / RFU, RNF170 / Fold change vs veh, RNF170 / RFU, ZNF28 / Fold change vs veh, ZNF28 / RFU, RNGTT / Fold change vs veh, RNGTT / RFU, OGT / Fold change vs veh, OGT / RFU, BRD1 / Fold change vs veh, BRD1 / RFU, MARS / Fold change vs veh, MARS / RFU, ZNF655 / Fold change vs veh, ZNF655 / RFU, FAHD1 / Fold change vs veh, FAHD1 / RFU, BDP1 / Fold change vs veh, BDP1 / RFU, LRRCC1 / Fold change vs veh, LRRCC1 / RFU, ARID1A / Fold change vs veh, ARID1A / RFU, ZNF146 / Fold change vs veh, ZNF146 / RFU, ZNF330 / Fold change vs veh, ZNF330 / RFU, GPN3 / Fold change vs veh, GPN3 / RFU, C9orf123 / Fold change vs veh, C9orf123 / RFU, N4BP2L2 / Fold change vs veh, N4BP2L2 / RFU, ARFIP1 / Fold change vs veh, ARFIP1 / RFU, FAM179B / Fold change vs veh, FAM179B / RFU, BCL10 / Fold change vs veh, BCL10 / RFU, UHRF1BP1L / Fold change vs veh, UHRF1BP1L / RFU, BET1 / Fold change vs veh, BET1 / RFU, CNOT2 / Fold change vs veh, CNOT2 / RFU, ZNF268 / Fold change vs veh, ZNF268 / Fold change vs veh, ZNF507 / RFU, DGCR2 / Fold change vs veh, DGCR2 / RFU, WDSUB1 / Fold change vs veh, WDSUB1 / Fold change vs veh, HSP90B1 /// MIR3652 / RFU, ADSS / Fold change vs veh, ADSS / RFU, GK / Fold change vs veh, GK / RFU, ZNF148 / Fold change vs veh, ZNF148 / RFU, TAF9 / Fold change vs veh, TAF9 / RFU, SLC1A5 / Fold change vs veh, SLC1A5 / RFU, SLMO2 / Fold change vs veh, SLMO2 / RFU, ABCC4 / Fold change vs veh, ABCC4 / RFU, LOC101060439 /// RAP1B / Fold change vs veh, LOC101060439 /// RAP1B / RFU, RFX7 / Fold change vs veh, RFX7 / RFU, GTPBP10 / Fold change vs veh, GTPBP10 / RFU, CNEP1R1 / Fold change vs veh, CNEP1R1 / RFU, BIVM-ERCC5 /// ERCC5 / Fold change vs veh, BIVM-ERCC5 /// ERCC5 / RFU, ILF3 / Fold change vs veh, ILF3 / RFU 11762660_at / Fold change /veh 11762660_at / RFU VCAN (11757783_s_at) / Fold change /veh VCAN (11757783_s_at) / RFU DDX43 (11728927_at) / Fold change /veh DDX43 (11728927_at) / RFU KRT8 (11758188_x_at) / Fold change /veh KRT8 (11758188_x_at) / RFU NKD1 (11759106_at) / Fold change /veh NKD1 (11759106_at) / RFU SRD5A1 (11742802_a_at) / Fold change /veh SRD5A1 (11742802_a_at) / RFU TPSAB1 /// TPSB2 (11721975_s_at) / Fold change /veh TPSAB1 /// TPSB2 (11721975_s_at) / RFU GSTM3 (11746129_a_at) / Fold change /veh GSTM3 (11746129_a_at) / RFU IL23R (11737362_x_at) / Fold change /veh IL23R (11737362_x_at) / RFU TMEM51 (11727254_a_at) / Fold change /veh TMEM51 (11727254_a_at) / RFU PIWIL2 (11732686_x_at) / Fold change /veh PIWIL2 (11732686_x_at) / RFU ORM1 (11744905_x_at) / Fold change /veh ORM1 (11744905_x_at) / RFU CCDC152 (11743942_at) / Fold change /veh CCDC152 (11743942_at) / RFU ECM1 (11717891_a_at) / Fold change /veh ECM1 (11717891_a_at) / RFU IL23R (11748794_a_at) / Fold change /veh IL23R (11748794_a_at) / RFU TNFAIP8L3 (11732012_x_at) / Fold change /veh TNFAIP8L3 (11732012_x_at) / RFU MBOAT4 (11741988_at) / Fold change /veh MBOAT4 (11741988_at) / RFU 11764193_at / Fold change /veh 11764193_at / RFU TMEM53 (11763286_at) / Fold change /veh TMEM53 (11763286_at) / RFU MAGEB2 (11727129_at) / Fold change /veh MAGEB2 (11727129_at) / RFU TMEM200A (11744735_a_at) / Fold change /veh TMEM200A (11744735_a_at) / RFU CCDC152 (11751479_a_at) / Fold change /veh CCDC152 (11751479_a_at) / RFU FAM211A (11726209_a_at) / Fold change /veh FAM211A (11726209_a_at) / RFU RGS16 (11746705_a_at) / Fold change /veh RGS16 (11746705_a_at) / RFU VCAN (11755009_s_at) / Fold change /veh VCAN (11755009_s_at) / RFU RHOB (11743442_s_at) / Fold change /veh RHOB (11743442_s_at) / RFU RGS16 (11720943_a_at) / Fold change /veh RGS16 (11720943_a_at) / RFU RGS16 (11720944_at) / Fold change /veh RGS16 (11720944_at) / RFU, VPS4B / Fold change vs veh, VPS4B / RFU, CREB1 / Fold change vs veh, CREB1 / RFU, DNAJC13 / Fold change vs veh, DNAJC13 / RFU, GNAQ / Fold change vs veh, GNAQ / RFU, CDK5R1 / Fold change vs veh, CDK5R1 / RFU, ZRANB3 / Fold change vs veh, ZRANB3 / RFU, CUL4A / Fold change vs veh, CUL4A / RFU, CCNY / Fold change vs veh, CCNY / RFU, UFL1 / Fold change vs veh, UFL1 / RFU, COG3 / Fold change vs veh, COG3 / RFU, DIAPH2 / Fold change vs veh, DIAPH2 / RFU, SKA2 / Fold change vs veh, SKA2 / RFU, AFF3 / Fold change vs veh, AFF3 / RFU, LMF1 / Fold change vs veh, LMF1 / RFU, IPO11 / Fold change vs veh, IPO11 / RFU, DFFB / Fold change vs veh, DFFB / RFU, FOXP1 / Fold change vs veh, FOXP1 / RFU, CARD8 / Fold change vs veh, CARD8 / RFU, STRN3 / Fold change vs veh, STRN3 / RFU, ADK / Fold change vs veh, ADK / RFU, RASSF2 / Fold change vs veh, RASSF2 / RFU, WIPF1 / Fold change vs veh, WIPF1 / RFU, LARP1B / Fold change vs veh, LARP1B / RFU, RASA1 / Fold change vs veh, RASA1 / RFU, RB1 / Fold change vs veh, RB1 / RFU, PPFIA1 / Fold change vs veh, PPFIA1 / RFU, MAT2A / Fold change vs veh, MAT2A / RFU, CCT5 / Fold change vs veh, CCT5 / RFU, WDR92 / Fold change vs veh, WDR92 / RFU, CUX1 / Fold change vs veh, CUX1 / RFU, TTC7A / Fold change vs veh, TTC7A / RFU, TMEM135 / Fold change vs veh, TMEM135 / RFU, DEPTOR / Fold change vs veh, DEPTOR / RFU, CPM / Fold change vs veh, CPM / RFU, DNAJB6 / Fold change vs veh, DNAJB6 / RFU, CACNA2D3 / Fold change vs veh, CACNA2D3 / RFU, DTX4 / Fold change vs veh, DTX4 / RFU, TFCP2 / Fold change vs veh, TFCP2 / RFU, GMCL1 /// GMCL1P1 / Fold change vs veh, GMCL1 /// GMCL1P1 / RFU, AEBP2 / Fold change vs veh, AEBP2 / RFU, SNHG1 /// SNORD22 /// SNORD25 /// SNORD26 /// SNORD27 /// SNORD28 /// SNORD29 /// SNORD31 / Fold change vs veh, SNHG1 /// SNORD22 /// SNORD25 /// SNORD26 /// SNORD27 /// SNORD28 /// SNORD29 /// SNORD31 / Fold change (Aza/veh), C12orf56 (ProbeSet 11735607_a_at) / Fold change (ACY-1035/veh), C12orf56 (ProbeSet 11735607_a_at) / Fold change (Aza/veh), FGFR1OP (ProbeSet 11751329_s_at) / Fold change (ACY-1035/veh), FGFR1OP (ProbeSet 11751329_s_at) / Fold change (Aza/veh), VPS36 (ProbeSet 11739960_a_at) / Fold change (ACY-1035/veh), VPS36 (ProbeSet 11739960_a_at) / RFU SYPL1 (11715823_x_at) / Fold change /veh SYPL1 (11715823_x_at) / RFU IGFBP7 (11715501_s_at) / Fold change /veh IGFBP7 (11715501_s_at) / RFU REEP3 (11722064_at) / Fold change /veh REEP3 (11722064_at) / RFU IGLL1 (11728026_x_at) / Fold change /veh IGLL1 (11728026_x_at): dose or concentration left out as unconfirmed. It is filed as cell-based, human. Conditions: MV-4-11 cells, 48 hours.

Regarding `Nc1ccc(-c2cccs2)cc1NC(=O)c1ccc2c(c1)cc(C1CC1)n2CCN1CCOCC1` [ACY-1035], the “Fold change /veh CLDN22 /// WWC2 (11732394_at)” value turned out to be 1.04.
